From patent EP3095872A1, “A METHOD OF PRODUCING ALPHA AMINO ACIDS” (Evonik Degussa GmbH, priority 2015, dated 2016)
Like-named read-outs stand apart in the source and are kept apart here. Marks after values point to notes of the source that are not given here.

Tests used:
[1] = tested on: P450Cla, L- and D-HICDH, leucine-DH; experiment: three-step one-pot cascade of fatty acid to amino acid (TLC ninhydrin, GC-MS); format: biochemical
Description: Hydroxylation of all four fatty acid substrates (C4, C6, C8, C10) was performed as described above using 3 µM P450Cla, 10 mM substrate and 2.5 % EtOH in a final volume of 1 ml Tris-HCl (pH 7.5, 0.1 M). H2O2 was supplemented every 30 min (23 times; 36.8 mM total). After 24 h, the hydroxylation reaction (step 1) was stopped by adding 1200 U catalase (1 mg), 20µl of (NH4)2SO4(2.5 M stock) and the pH was adjusted to 8.5 using 1 M NaOH. For step 2 and 3 of the cascade, Land D-HICDH (0.25 mg), 10 mM NAD+ and 5 µl purified leucine-DH were added to the reaction mixture. After 24 h reaction time, 2 µl of the reaction volume were spotted on a TLC plate along with a commercial standard of L-norleucine as reference material (positive control). After elution of products acetic acid/H2O/n-butanol as mobile phase (1:1:3), the plate was stained with ninhydrin and heated gently for colour development. […] The following control reactions were performed to confirm the overall success of the two step cascade leaving one of the following components out of the reaction: 1) P450; 2) L- or D-HICDH; 3) Leu-DH; 4) fatty acid substrate; 5) H2O2; 6) (NH4)2SO4; 7) NAD+. The reaction samples were analyzed by TLC as shown before, but formation of norleucine could not be detected. […]

[2] = tested on: P450Cla; experiment: alpha-hydroxylation of selected fatty acids, catalytic and kinetic characterization of P450Cla; format: biochemical; settings: for specific activity U mg^-1: P450Cla 48 kDa, values only relevant at initial rate; for Coupling*: mol product per mol H2O2; for Product: 10 mM fatty acid, 0.5 µM P450Cla (C10), 1 µM (C8, C6), Tris-HCl pH 7.5, RT, triplicate
Description: Hydroxylation of selected fatty acids was carried out using a fresh preparation of purified P450Cla. P450Cla was characterised for key catalytic parameters specific activities were determined for three selected substrates as shown in Table 1. Table 1: Catalytic and kinetic characterization of P450Cla for conversion of 10 mM of selected fatty acids. All reactions were performed in triplicate.
Conditions: 0.5 µM P450Cla used in reactions with C10; 1 µM P450Cla used in reactions with C8 and C6; All reactions were performed in Tris-HCl (pH 7.5, 0.1 M) at RT and 170 rpm shaking in closed glass vials; *molProduct^-1 molH2O2^-1; ^§molecular weight of P450Cla is 48 kDa, values only relevant at initial rate.

[3] = biological target: T1, CYPBSß (Bacillus subtilis, UniProt O31440); experiment: conversion of fatty acid substrates with CYPBSß, oxidant H2O2; format: biochemical; settings: for 2a-d: H2O2; for Conversion: 3 µM P450BSß, KPi pH 7.0, 24 h, values marked a based on substrate depletion
T1 construct: made in house
Description: (§1) P450Cla was ordered as synthetic gene and cloned into the pET28a expression vector. […] The dialysis buffer was supplemented with 300 mM NaCl to prevent precipitation of P450Cla. Next, hydroxylation of fatty acid substrates 1a-d (scheme 2) was performed employing purified P450Cla and P450BSß. The oxidant source was varied in case of P450Cla while only H2O2 was used with P450BSß.
Reaction conditions for P450BSß: 3µM P450BSß; KPi buffer (pH 7.0; 0.1 M); 5 % EtOH (cosolvent). […] All products were identified by GC-MS and/or comparison with authentic materials.
(§2) All reactions were performed in closed glass vials for 24 h reaction time at RT with 170 rpm shaking. The reactions were quenched by addition of 100 µl 5 N HCl. Extractions were performed with 500 µl EtOAc containing 0.1 % 1-decanol as internal standard. After drying over Na2SO4, derivatization of acids to corresponding methyl esters was realized by mixing 150 µl of organic phase with 90µl of MeOH prior to supplementation of 20 µl of TMSCHN2 for esterification. Samples were analyzed by GC-FID and GC-MS. Commercial standards of 2-hydroxycaproic acid (2a), 2-hydroxyoctanoic acid (2b) and 2-oxooctanoic acid (4b) were used as references. Calibration curves were obtained from standards 1a-d and 2a-b prepared identically to the reaction mixtures (5 concentration points from 10 µM to 1 mM).

[4] = tested on: P450Cla; experiment: conversion of fatty acid substrates 1a-d with P450Cla, oxidant H2O2; format: biochemical; settings: for 2a-d: H2O2; for Conversion: 3 µM P450Cla, 24 h, RT, values marked a based on substrate depletion
Description: as §1
Reaction conditions for P450Cla: 3µM P450Cla; Tris-HCl (pH 7.5; 0.1 M); 2.5 to 5 % EtOH (cosolvent for the substrate).
as §2

[5] = tested on: leucine-DH; experiment: deamination of L-norleucine and L-leucine using leucine-DH, NADH formation at 340 nm; format: biochemical; settings: 10 mM substrate; 10 mM NAD+; pH 8.5; UV absorption at 340 nm
Description: Deamination of L-norleucine and L-leucine (both commercial standards) was performed using a purified leucine-DH. Reactions contained 10 mM substrate, 10 mM NAD+ and 5 µl leucine-DH in a final volume of 1 ml Tris-HCl (pH 8.5, 0.1 M). Oxidation of the amino acids was successful as indicated by increasing UV absorption at 340 nm, corresponding to (concomitant) formation of NADH (Figure 3).

[6] = biological target: YcnD (Bacillus subtilis, UniProt P94424); experiment: oxidation/dehydrogenation of alpha-hydroxy acids 2a-b, YcnD alone; settings: 10 mM substrate; YcnD without HICDH; KPi pH 7.5; RT, 24 h
[7] = tested on: D/L-HICDH; experiment: oxidation/dehydrogenation of alpha-hydroxy acids 2a-b using D/L-HICDH; format: biochemical; settings: 10 mM substrate; KPi pH 7.5; 1 mM NAD+ (also 6.75 mM); RT, 24 h
[8] = tested on: D/L-HICDH-YcnD; experiment: oxidation/dehydrogenation of alpha-hydroxy acids 2a-b using D/L-HICDH with NADH-oxidase YcnD; format: biochemical; settings: 10 mM substrate; with YcnD and catalase; KPi pH 7.5; 1 mM NAD+ (also 6.75 mM); RT, 24 h
[9] = tested on: L- and D-HICDH; experiment: oxidation of alpha-hydroxy acids with L- and D-HICDH, NADH formation at 340 nm; format: biochemical; settings: for NADH concentration: after 1 min reaction time, estimated (Figure 2); for Oxidation of the α-hydroxy acid substrates: 1 or 10 mM substrate, 10 mM NAD+, pH 8.5, UV absorption at 340 nm
Description: A modified protocol for oxidation of 2-hydroxy acids with L-and D-HICDH was established allowing oxidation of 2-hydroxyhexanoic acid and 2-hydroxyoctanoic acid (both commercial standards) that are produced in step 1 of the cascade (Scheme 1). Reactions contained 1 or 10 mM substrate, 1 % DMSO, 10 mM NAD+ and 0.25 mg of L- and D-HICDH (cell free freeze-dried lysates) in a final volume of 1 ml Tris-HCl (pH 8.5, 0.1 M). Oxidation of the α-hydroxy acid substrates was successful as indicated by increasing UV absorption at 340 nm, corresponding to (concomitant) formation of NADH (Figure 2).

[10] = biological target: T2, P450 BM3 variant M2 (Priestia megaterium, UniProt P14779, I402M/R48S/Y52W); format: biochemical, Bacillus megaterium; settings: 50 mM substrate; O2 as oxidant; GDH/glucose NADPH regeneration; absent in control reactions
T2 construct: made in house; host or cells: E. coli BL21 Gold (DE3)-derived E. coli lacIQ1 Gold (DE3)
Description: Ethyl acetoxy-butanoate (EAB) was converted with P450 BM3 variant M2 employing O2 as oxidant.
The essential NADPH cofactor was regenerated using a glucose dehydrogenase (GDH) and glucose as shown in Scheme 3. [drawing 4]
Reactions were done in 1 mL scale (KPi-buffer, pH 7.5, 0.1 M) containing following components: • 12 U GDH • 100 mM glucose • 400 µM NADP+ • 50 mM EBA (substrate) in DMSO (5 % V/V DMSO final) • 50 mg cell free freeze dried lysate of P450 BM3 variant M2
For analysis, 100 µl of the reaction volume were mixed with 100 µl acetonitrile followed by centrifugation to remove insoluble particles. The supernatant was diluted 1:50 in H2O/acetonitrile (50:50; V/V) followed by injection into the LC-MS.
In addition, the product peaks elute earlier than the substrate (3.699 min) indicating a higher polarity possibly due to a hydroxylation of EAB.

[11] = 5 mM substrate, H2O2 8 mM total
[12] = 10 mM substrate, H2O2 16 mM total
[13] = 5 mM substrate, H2O2 9.6 mM total
[14] = 10 mM substrate, H2O2 19.2 mM total

T1 sequence (O31440 whole entry): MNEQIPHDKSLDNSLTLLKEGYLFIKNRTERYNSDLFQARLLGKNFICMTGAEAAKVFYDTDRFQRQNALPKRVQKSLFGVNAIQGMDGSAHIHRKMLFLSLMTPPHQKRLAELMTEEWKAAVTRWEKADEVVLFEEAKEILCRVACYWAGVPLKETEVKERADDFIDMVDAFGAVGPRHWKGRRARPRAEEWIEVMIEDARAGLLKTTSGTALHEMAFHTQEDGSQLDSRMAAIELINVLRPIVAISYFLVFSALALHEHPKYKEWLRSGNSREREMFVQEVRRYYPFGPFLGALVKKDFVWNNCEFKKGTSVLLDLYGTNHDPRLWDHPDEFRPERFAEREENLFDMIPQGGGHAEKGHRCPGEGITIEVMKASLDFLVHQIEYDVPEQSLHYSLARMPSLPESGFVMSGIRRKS
Chain of YcnD (P94424 whole entry): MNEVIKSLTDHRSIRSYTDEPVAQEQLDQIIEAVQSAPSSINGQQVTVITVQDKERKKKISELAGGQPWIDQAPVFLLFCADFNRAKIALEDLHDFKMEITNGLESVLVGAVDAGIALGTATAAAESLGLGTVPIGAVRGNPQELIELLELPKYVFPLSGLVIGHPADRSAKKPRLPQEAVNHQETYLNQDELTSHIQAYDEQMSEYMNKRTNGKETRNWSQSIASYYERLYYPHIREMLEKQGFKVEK
T2 sequence (P14779 whole entry R48S/Y52W/I402M): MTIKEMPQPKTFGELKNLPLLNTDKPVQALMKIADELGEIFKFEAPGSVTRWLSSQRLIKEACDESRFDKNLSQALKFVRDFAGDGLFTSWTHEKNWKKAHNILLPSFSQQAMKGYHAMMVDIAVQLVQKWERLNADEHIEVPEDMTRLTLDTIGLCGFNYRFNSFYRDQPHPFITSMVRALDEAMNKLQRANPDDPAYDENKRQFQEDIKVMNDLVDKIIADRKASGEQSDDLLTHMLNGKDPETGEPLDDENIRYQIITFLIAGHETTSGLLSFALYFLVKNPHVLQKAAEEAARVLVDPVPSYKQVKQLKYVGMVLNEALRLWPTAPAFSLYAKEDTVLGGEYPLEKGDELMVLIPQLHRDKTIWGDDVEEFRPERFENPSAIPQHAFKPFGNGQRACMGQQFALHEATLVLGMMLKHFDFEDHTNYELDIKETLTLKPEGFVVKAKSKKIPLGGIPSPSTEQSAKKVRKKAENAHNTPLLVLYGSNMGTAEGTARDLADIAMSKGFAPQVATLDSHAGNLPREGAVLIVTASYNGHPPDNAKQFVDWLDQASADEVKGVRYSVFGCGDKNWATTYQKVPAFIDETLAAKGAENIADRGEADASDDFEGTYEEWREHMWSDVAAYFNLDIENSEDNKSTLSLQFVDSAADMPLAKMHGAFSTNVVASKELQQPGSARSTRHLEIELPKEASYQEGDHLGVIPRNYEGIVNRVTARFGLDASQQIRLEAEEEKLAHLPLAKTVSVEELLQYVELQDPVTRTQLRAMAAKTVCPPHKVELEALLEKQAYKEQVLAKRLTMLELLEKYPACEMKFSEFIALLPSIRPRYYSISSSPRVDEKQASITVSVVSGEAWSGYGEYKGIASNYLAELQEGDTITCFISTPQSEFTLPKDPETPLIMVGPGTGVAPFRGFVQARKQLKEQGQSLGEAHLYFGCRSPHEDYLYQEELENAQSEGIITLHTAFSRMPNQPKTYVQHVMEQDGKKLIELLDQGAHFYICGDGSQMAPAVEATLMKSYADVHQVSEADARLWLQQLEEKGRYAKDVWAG

CCCCCC(=O)O [Substrate C6, hexanoic acid]
production of norleucine (GC-MS after derivatization) ([1]; 10 mM hexanoic acid, Figure 4): successful production of norleucine
formation of norleucine / amino acid (TLC, ninhydrin staining) ([1]; 10 mM substrate, step 1 24 h, steps 2 and 3 24 h, one pot): distinct red spot
Selectivity [% α-OH] [2]: > 90%
specific activity [2]: ≥ 1 U mg^-1
Selectivity [% α-OH] ([2]; 5 min, H2O2 0.8 mM): >95%
TON ([2]; 5 min, H2O2 0.8 mM): 139 min⁻¹
TTN ([2]; 5 min, H2O2 0.8 mM): 695
specific activity U mg^-1 ([2]; 5 min, H2O2 0.8 mM): 2.9 U mg^-1
Coupling* ([2]; 5 min, H2O2 0.8 mM): 87%
Selectivity [% α-OH] ([2]; 15 min, H2O2 0.8 mM): >95%
TON ([2]; 15 min, H2O2 0.8 mM): 47 min⁻¹
TTN ([2]; 15 min, H2O2 0.8 mM): 706
specific activity U mg^-1 ([2]; 15 min, H2O2 0.8 mM): 1.0 U mg^-1
Coupling* ([2]; 15 min, H2O2 0.8 mM): 88%
Selectivity [% α-OH] ([2]; 30 min, H2O2 1.6 mM): >95%
TON ([2]; 30 min, H2O2 1.6 mM): 29 min⁻¹
TTN ([2]; 30 min, H2O2 1.6 mM): 880
specific activity U mg^-1 ([2]; 30 min, H2O2 1.6 mM): 0.6 U mg^-1
Coupling* ([2]; 30 min, H2O2 1.6 mM): 55%

CCCCCC(=O)O [Substrate 1a, hexanoic acid]
2a-d ([3]; 5 mM substrate): 08 mM
Conversion [3, 11]: 16%
α/β-Regioselectivity (2a-d vs 3a-d) ([3]; 5 mM substrate, share of 2a, 3a not detected): 2a >95%^e
2a-d ([3]; 10 mM substrate): 1.1 mM
Conversion [3, 12]: 11%
α/β-Regioselectivity (2a-d vs 3a-d) ([3]; 10 mM substrate, share of 2a, 3a not detected): 2a >95%^e
2a-d ([4]; 5 mM substrate): 3.1 mM
Conversion [4, 13]: 62%
Conversion [4, 14]: 51%
2a-d ([4]; 10 mM substrate, values marked c outside of calibration range): 5.1^c mM

CC(C)C[C@H](N)C(=O)O [L-leucine]
Oxidation of the amino acids [5]: successful

CCCCCCC(O)C(=O)O (centres unmarked) [Substrate 2b, 2-hydroxyoctanoic acid]
α-Ketoacid 4a/b detected [Y/N] [6]: No
α-Ketoacid 4a/b detected [Y/N] [7]: No
α-Ketoacid 4a/b detected [Y/N] [8]: Yes (traces)
NADH concentration ([9]; 1 mM substrate): 41 µM
NADH concentration ([9]; 10 mM substrate): 126 µM
Oxidation of the α-hydroxy acid substrates [9]: successful

CCCC[C@H](N)C(=O)O [L-norleucine]
Oxidation of the amino acids [5]: successful

CCCCCCCCCC(=O)O [Substrate 1c, decanoic acid]
Conversion [3, 11]: 54^a %
α/β-Regioselectivity (2a-d vs 3a-d) ([3]; 5 mM substrate, ratio α-hydroxy/β-hydroxy product): 2c/3c 64/36
Conversion [3, 12]: 46^a %
α/β-Regioselectivity (2a-d vs 3a-d) ([3]; 10 mM substrate, ratio α-hydroxy/β-hydroxy product): 2c/3c 56/44
Conversion [4, 13]: >99^a %
Conversion [4, 14]: >99^a %

Ethyl acetoxy-butanoate [EAB]
products of mass 190.08+1 (LC-MS) [10]: formation of two product peaks

CCCCCCCC(=O)O [Substrate C8, octanoic acid]
specific activity [2]: ≥ 1 U mg^-1
Product ([2]; 5 min, H2O2 0.8 mM): 0.49 ± 0.02 mM
Product ([2]; 15 min, H2O2 0.8 mM): 0.51 ± 0.01 mM
Product ([2]; 30 min, H2O2 1.6 mM): 0.94 ± 0.05 mM
TON ([2]; 5 min, H2O2 0.8 mM): 98 min⁻¹
TTN ([2]; 5 min, H2O2 0.8 mM): 488
specific activity U mg^-1 ([2]; 5 min, H2O2 0.8 mM): 2.0 U mg^-1
Coupling* ([2]; 5 min, H2O2 0.8 mM): 61%
TON ([2]; 15 min, H2O2 0.8 mM): 34 min⁻¹
TTN ([2]; 15 min, H2O2 0.8 mM): 506
specific activity U mg^-1 ([2]; 15 min, H2O2 0.8 mM): 07 U mg^-1
Coupling* ([2]; 15 min, H2O2 0.8 mM): 63%
TON ([2]; 30 min, H2O2 1.6 mM): 31 min⁻¹
TTN ([2]; 30 min, H2O2 1.6 mM): 938
specific activity U mg^-1 ([2]; 30 min, H2O2 1.6 mM): 0.7 U mg^-1
Coupling* ([2]; 30 min, H2O2 1.6 mM): 59%

CCCCC(O)C(=O)O (centres unmarked) [Substrate 2a, 2-hydroxycaproic acid]
α-Ketoacid 4a/b detected [Y/N] [6]: No
α-Ketoacid 4a/b detected [Y/N] [7]: No
α-Ketoacid 4a/b detected [Y/N] [8]: No
NADH concentration ([9]; 1 mM substrate): 45 µM
NADH concentration ([9]; 10 mM substrate): 142 µM
Oxidation of the α-hydroxy acid substrates [9]: successful

CCCCCCCC(=O)O [Substrate 1b, octanoic acid]
Conversion [4, 13]: 96%
Conversion [4, 14]: >99%
